Results on one compound are retold here after patent publication EP4700036A1, “GLYCOLIPID DERIVATIVE AS MINCLE LIGAND” (The University of Osaka, priority 2023, dated 2024).

In the test the target is T1, bovine Mincle (Bos taurus, UniProt E1BHM0).
T1 construct: expressed in transfected cells
T1 sequence (E1BHM0 1-211): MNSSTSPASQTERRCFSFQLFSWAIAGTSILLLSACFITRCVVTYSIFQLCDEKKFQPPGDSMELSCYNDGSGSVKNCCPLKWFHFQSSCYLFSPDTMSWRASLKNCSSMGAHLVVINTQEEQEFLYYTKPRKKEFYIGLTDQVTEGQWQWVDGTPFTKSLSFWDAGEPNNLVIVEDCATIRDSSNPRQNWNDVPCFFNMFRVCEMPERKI
As to the kind of experiment: Mincle ligand activity, NFAT-GFP reporter cells expressing bovine Mincle. Format: cell-based. The conditions noted are these: 96-well plate, 0.03 to 3 nmol; Fig. 1 (right). Here is the method:
Similarly, using NFAT-GFP reporter cells expressing bovine Mincle, prepared according to the method described in a literature (Yamasaki, S. et al, Nat Immunol 9, 1179-88(2008)), the ligand activity of HD-276 was evaluated on a 96-well plate. The doses of the test compounds (horizontal axis) were 0.03 to 3 (nmol) from the left to right.

Regarding `CCCCCCc1ccc(O[C@@H]2O[C@@H](C)[C@H](O)[C@@H](OC)[C@H]2O[C@@H]2O[C@@H](C)[C@H](O[C@@H]3O[C@H](COC)[C@@H](O)[C@H](O)[C@H]3O)[C@@H](OC)[C@H]2OC)cc1` [HD-276], the “Mincle ligand activity (reporter activity)” value is “confirmed to have Mincle ligand activity”.
